{
  "source": "patent US10556926B2",
  "about": "“Synthetic artificial peptides with antimicrobial effect” (priority 2014, dated 2020)",
  "key": {"[1]": {"test_system": "human histiocytic lymphoma cell line U937", "assay": "Long-term growth inhibition, minimum toxic concentration (MTC)", "protocol": "The cytotoxic potential of the antimicrobial peptides was determined by way of example by reference to the human histiocytic lymphoma cell line U937 (DSMZ). The influence of the peptides on the permeability of the cell membrane and their longer-term growth-inhibiting effect was investigated. 15 ml of RPMI 1640 medium with 2 mM glutamine and 10% FCS (Biochrom, Berlin, Germany) were inoculated with 1·10^5 cells per ml and cultivated for three days at 37° in T75 cell culture bottles (TPP, Trasadingen, Switzerland) with constant gassing with 5% CO2 in a climatically controlled chamber. The medium was admixed with 10 U/ml penicillin and […] streptomycin (both AppliChem, Darmstadt, Germany) to avoid bacterial contaminations, with no further antibiotics being added during the subsequent recultivation. Before each experiment, the cells were washed by centrifugation at 100 g for five minutes and subsequent resuspension in RPMI 1640 medium with 2 mM glutamine and 10% FCS in each case two times and adjusted to a concentration of 1·10^5 cells per ml. Finally, in each case 100 μl of the U937 cells were transferred to the reaction chambers of a sterile 96-well polypropylene microtiter plate and admixed with in each case 100 μl of a prediluted antimicrobial peptide in RPMI 1640 medium without antibiotic addition, such that end concentrations of in each case 5·10^4 cells per ml at peptide concentrations between 0.25 μM and 64 μM were present. The negative control used was samples without antimicrobial peptide, while Triton X-100 (AppliChem) was used in an end concentration of 5% as positive control for the permeabilization. The samples were cultivated for two hours at 37° C. and with continuous gassing with 5% CO2 in a climatically controlled chamber. Then, in each case 100 μl of each sample were removed and transferred to new sterile microtiter plates for determining the direct membrane damage. The remaining 100 μl of the samples were cultivated for at least four further days.\nFor this purpose, 10 μl of lysing solution were added to in each case 100 μl of cell suspension and incubated for 60 minutes at 37° C. Then, the cell culture supernatants were investigated as described above. The lowest peptide concentration at which complete suppression of the cell growth was established after four days was stipulated as the minimum toxic concentration (MTC)."}, "human cell line U937": {"test_system": "human cell line U937", "assay": "Mixed culture experiment (bacterially contaminated cell culture), eukaryotic cells", "assay_type": "cell-based", "conditions": "25 and 50 μM peptide, two hours, with S. xylosus", "protocol": "Destruction of the bacteria membranes by the antimicrobial peptides was investigated in a flow cytometric method with the help of a living/dead staining method in combination with an internal calibration and counting system. For this purpose, SYBR Green I (Sigma-Aldrich) was used as total staining and propidium iodide (Sigma-Aldrich) was used as contrast staining for membrane-damaged bacteria. […] The flow analysis was carried out on a Cytomics FC500 Instrument (Beckmann Coulter, Munich, Germany) equipped with an argon laser (488 nm) and the corresponding emission filters for SYBR Green I (525 nm) and propidium iodide (620 nm). […] Then, the mixture was incubated for 10 min in the dark at room temperature and then measured by flow cytometry. The number of events in each gate was captured and evaluated using the CXP Analyses 2.2 Software. The total number of living and dead bacteria was calculated. […]\nThe ability of the antimicrobial peptides to be used as a therapeutic active ingredient was investigated by reference to its selective antimicrobial properties in model mixed culture experiments. […] Then, the mixed cell cultures were stained and measured by flow cytometry as described in example 3, the measurement scale being adapted to the measurement of the larger eukaryotic cells."}, "[2]": {"test_system": "human histiocytic lymphoma cell line U937", "assay": "Cytotoxicity, direct membrane damage (CytoTox 96), LD50", "assay_type": "cell-based", "conditions": "U937, two hours at 37° C., 0.25-64 μM", "protocol": "The direct membrane damage was investigated with the help of the CytoTox 96 Non-Radioactive Cytotoxicity Assay (Promega, Mannheim, Germany). For this purpose, the cells were sedimented at 100 g for ten minutes at 4° C., and 50 μl of the resulting culture supernatant were added to 50 μl of the CytoTox substrate mix. After an incubation time of 30 minutes in the dark at room temperature, 50 μl of the CytoTox stopping solution were added to the sample and the absorption was measured at 490 nm. To determine the LD50 value, the measurement value of the negative control was deducted from the absorption values and divided by the measurement value of the permeabilization control. The calculated values were plotted graphically against the peptide concentration and fitted using the Origin pro 8.1 G Software according to a sigmoidal model and the LD50 values were ascertained from this. The calculation was carried out analogously to example 5 by reference to the solution of equation 5.1 for the case y=50, where y in this case corresponds to the relative cytotoxicity in percent and x corresponds to the peptide concentration in μM. Representative graphical evaluations of LD50 values are shown in FIG. 6 by reference to the measurement results for the reference peptides BMAP-27, protamine and KL-helix, and also the peptide O1 according to the invention."}, "Staphylococcus xylosus": {"test_system": "Staphylococcus xylosus", "conditions": "18 h", "protocol": "(§1) The minimum inhibitory concentration (MIC) of the peptides was carried out by way of example against gram(−) E. coli DH5α (and gram(+) Staphylococcus xylosus (both Deutsche Sammlung von Mikroorganismen and Zellkulturen, DSMZ) in a standardized microdilution method according to the general guidelines of the CLSI (Clinical and Laboratory Standards Institute 2006) and EUCAST (European Committee for Antimicrobial Susceptibility Testing of the European Society of Clinical Microbiology and Infectious Diseases 2003) with slight adaptations to the investigation of cationic antimicrobial peptides (Wiegand et al. 2008). The bacteria cells were cultivated in Mueller-Hinton-Boullion (MHB) to an optical density of 0.4 to 0.6 at 600 nm wavelength, corresponding to about 4·10^8 bacteria per ml. Then, the bacteria cultures were diluted to a bacteria concentration of about 1·10^5 bacteria per ml in sterile MHB. Using the peptides, series of 2-fold dilutions starting at 128 μM to the smallest dilution of 0.5 μM in MHB were prepared. The peptide dilutions were mixed with the dilute bacteria cultures in a […] in the chambers of a 96-well polypropylene microtiter plate (Starlab, Hamburg, Germany), so that the peptides were present in an end concentration between 64 μM and 0.25 μM at a bacteria concentration of 5·10^4 bacteria/ml. Sterile MHB served as negative control, and the positive control used as the corresponding bacteria concentration in MHB without the addition of peptide. The microtiter plates were incubated for 18 hours at 37° C. with shaking at 120 rpm in a climatically controlled chamber. After the incubation, the bacteria concentration was determined by renewed absorption measurement at a wavelength of 600 nm."}, "E. coli DH5α": {"test_system": "E. coli DH5α", "conditions": "DH5α, 18 h", "protocol": "as §1"}},
  "note": "No end group written: not given here.",
  "data": [
    {"sequence": "KKKIIIIIIKKK [O1]", "values": [
      {"measurement": "Toxicity MTC (minimum toxic concentration)", "setting": "[1]", "result": ">64", "unit": "µM"},
      {"measurement": "Effect on eukaryotic U937 cells in mixed culture", "setting": "human cell line U937", "result": "remain uninfluenced"},
      {"measurement": "Toxicity LD50", "setting": "[2]", "result": ">64", "unit": "µM"},
      {"measurement": "MIC S. xylosus", "setting": "Staphylococcus xylosus", "result": 0.5, "unit": "µM"},
      {"measurement": "MIC E. coli", "setting": "E. coli DH5α", "result": 8, "unit": "µM"}
    ]}
  ]
}
